Entries after “also recorded” stand apart in the source; their conditions may differ.

The target of one test is T1, TRAF6-UBC13 interaction (Homo sapiens, UniProt Q9Y4K3).
T1 construct: RING-Zincfinger1 (RZ1) domain (residues 50-159) of TRAF6 wildtype; made in house; host or cells: E. coli BL21 codon plus RIPL
T1 sequence (Q9Y4K3 50-159): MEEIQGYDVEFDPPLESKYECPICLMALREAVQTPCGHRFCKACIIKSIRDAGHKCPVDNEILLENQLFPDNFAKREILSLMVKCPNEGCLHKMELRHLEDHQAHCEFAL
Nature of the test: ALPHAScreen TRAF6WTStrepII-Ubc13FH interaction assay. The test is classed as binding. To be noted: inhibition of TRAF6-UBC13 interaction. The source says:
In order to identify small molecules that specifically target the RZ1 domain of TRAF6 and thereby prevent its binding to Ubc13, the ALPHAScreen technology (PerkinElmer) was chosen to detect TRAF6WTStrepII-Ubc13FH interaction in High-Throughput-Screenings as well as Structure Activity Relationship (SAR) analysis.
For performance of an automated ALPHAScreen assay, all following components were pre-diluted in ALPHAScreen buffer (1×PBS, 0.5% BSA, 0.01% Tween-20). First, the TRAF6 protein (end concentration 100 nM, 30 μL volume) was added to 384-well-opti-plates involving the MultiFlo dispensing system (BioTek) followed by transfer of the compounds via the Sciclone G3 transfer station (PerkinElmer). After addition of Ubc13FH (end concentration 75 nM, 10 μL volume) with the MultiFlo system and incubation for one hour at room temperature, both beads (Strep-Tactin Alpha Donor beads and Nickel-Chelate acceptor beads; end concentrations 4 μg each, 10 μL volume each) were mixed and added using the MultiFlo system in subdued light. Read-out of the plates occurred after another hour of incubation at room temperature. Statistical parameters including the coefficient of variation, Z′ factor and signal window were calculated to determine the quality of the HTS campaign. To evaluate the efficacy of the compounds, ALPHAScreen units of compound-treated samples were referred to DMSO control treated samples. Thereby, the TRAF6D57K mutant served as the control for minimum signal and was included on every plate of the screening. Compounds that inhibited TRAF6WTStrepII-Ubc13FH by more than 25% were considered as actives. After elimination of ALPHAScreen frequent hitter compounds and His-tag frequent hitters (Schorpp, K., I. Rothenaigner, E. Salmina, et al., Identification of Small-Molecule Frequent Hitters from AlphaScreen High-Throughput Screens. J Biomol Screen, 2014. 19(5): p. 715-26), 178 compounds were defined as primary hits and were subsequently tested in five-point serial dilution assays (2.5-40 μM) in TRAF6WTStrepII-Ubc13FH ALPHAScreen experiments. Only compounds with dose-dependent effects on TRAF6WTStrepII-Ubc13FH (n=27) were taken for further research. For analog testing, all compounds were analyzed in ten-point titration (0.2-100 μM) in TRAF6WTStrepII-Ubc13FH ALPHAScreen experiments. In parallel, the compounds were tested in the ALPHAScreen TruHits Kit (PerkinElmer) to rule out unspecific interference with the ALPHAScreen technology.
Background: Bead proximity is the source of the signal in Alpha formats.
For `Cc1nn(-c2ccc3nnc(C)n3n2)c(C)c1CCC(=O)NCc1cccs1` [Compound 19, 3-(3,5-dimethyl-1-(3-methyl-[1,2,4]triazolo[4,3-b]pyridazin-6-yl)-1H-pyrazol-4-yl)-N-(thiophen-2-ylmethyl)propanamide], the IC50 was at most 30 µM.
The same measure, in the same setting: under `Cc1nn(-c2ccc3nncn3n2)c(C)c1CCC(=O)N1CCC(Cc2ccccc2)CC1` [Compound 16, 3-(1-([1,2,4]triazolo[4,3-b]pyridazin-6-yl)-3,5-dimethyl-1H-pyrazol-4-yl)-1-(4-benzylpiperidin-1-yl)propan-1-one] stands at most 30 µM.
`Cc1nn(-c2ccc3nnc(C)n3n2)c(C)c1CCC(=O)NCc1ccccc1` [Compound 21, N-benzyl-3-(3,5-dimethyl-1-(3-methyl-[1,2,4]triazolo[4,3-b]pyridazin-6-yl)-1H-pyrazol-4-yl)propanamide] showed an IC50 of at most 30 µM.
With `Cc1nn(-c2ccc3nnc(C)n3n2)c(C)c1CCC(=O)NCCc1c[nH]c2ccccc12` [Compound 20, N-(2-(1H-indol-3-yl)ethyl)-3-(3,5-dimethyl-1-(3-methyl-[1,2,4]triazolo[4,3-b]pyridazin-6-yl)-1H-pyrazol-4-yl)propanamide], the IC50 was at most 30 µM.
As for `Cc1nn(-c2ccc3nnc(C)n3n2)c(C)c1CCC(=O)N1CCN(c2ccccn2)CC1` [Compound 2, 3-(3,5-dimethyl-1-(3-methyl-[1,2,4]triazolo[4,3-b]pyridazin-6-yl)-1H-pyrazol-4-yl)-1-(4-(pyridin-2-yl)piperazin-1-yl)propan-1-one], the IC50 is at most 3 µM.
On the same count and under the same terms, next, `Cc1ccc(CNC(=O)CCc2c(C)nn(-c3ccc4nnc(C)n4n3)c2C)o1` [Compound 13, 3-(3,5-dimethyl-1-(3-methyl-[1,2,4]triazolo[4,3-b]pyridazin-6-yl)-1H-pyrazol-4-yl)-N-((5-methylfuran-2-yl)methyl)propanamide]: at most 10 µM.
Same read-out and setting: next, `Cc1ccc(C)c(N2CCN(C(=O)CCc3c(C)nn(-c4ccc5nnc(C)n5n4)c3C)CC2)c1` [Compound 17, 3-(3,5-dimethyl-1-(3-methyl-[1,2,4]triazolo[4,3-b]pyridazin-6-yl)-1H-pyrazol-4-yl)-1-(4-(2,5-dimethylphenyl)piperazin-1-yl)propan-1-one]: at most 30 µM.
Still for that read-out and setting: under `Cc1nn(-c2ccc3nnc(C)n3n2)c(C)c1CCC(=O)N1CCN(Cc2cccc(Cl)c2)CC1` [Compound 11, 1-(4-(3-chlorobenzyl)piperazin-1-yl)-3-(3,5-dimethyl-1-(3-methyl-[1,2,4]triazolo[4,3-b]pyridazin-6-yl)-1H-pyrazol-4-yl)propan-1-one] stands at most 10 µM; under `Cc1nn(-c2ccc3nnc(C)n3n2)c(C)c1CCC(=O)N1CCN(c2ccccc2F)CC1` [Compound 14, 3-(3,5-dimethyl-1-(3-methyl-[1,2,4]triazolo[4,3-b]pyridazin-6-yl)-1H-pyrazol-4-yl)-1-(4-(2-fluorophenyl)piperazin-1-yl)propan-1-one], at most 30 µM.
In turn, `Cc1nn(-c2ccc3nnc(C)n3n2)c(C)c1CCC(=O)N1CCCC1` [Compound 6, 3-(3,5-dimethyl-1-(3-methyl-[1,2,4]triazolo[4,3-b]pyridazin-6-yl)-1H-pyrazol-4-yl)-1-(pyrrolidin-1-yl)propan-1-one] displayed an IC50 of at most 10 µM.
On the same count and under the same terms, under `COc1cccc(N2CCN(C(=O)CCc3c(C)nn(-c4ccc5nnc(C)n5n4)c3C)CC2)c1` [Compound 61, 3-(3,5-dimethyl-1-(3-methyl-[1,2,4]triazolo[4,3-b]pyridazin-6-yl)-1H-pyrazol-4-yl)-1-(4-(3-methoxyphenyl)piperazin-1-yl)propan-1-one] stands at most 3 µM; under `COc1ccc(N2CCN(C(=O)CCc3c(C)nn(-c4ccc5nnc(C)n5n4)c3C)CC2)cc1` [Compound 7, 3-(3,5-dimethyl-1-(3-methyl-[1,2,4]triazolo[4,3-b]pyridazin-6-yl)-1H-pyrazol-4-yl)-1-(4-(4-methoxyphenyl)piperazin-1-yl)propan-1-one], at most 10 µM.

The test is the same for the next values; noted with them: inhibition of TRAF6-UBC13 interaction; read-out: IC50 Alphascreen.
With `Cc1nn(-c2ccc3nncn3n2)c(C)c1CCC(=O)N1CCC(C)CC1` [Compound 24, 3-(1-([1,2,4]triazolo[4,3-b]pyridazin-6-yl)-3,5-dimethyl-1H-pyrazol-4-yl)-1-(4-methylpiperidin-1-yl)propan-1-one], the inhibition at 100 µM is at least 30%.
Still for that read-out and setting: under `Cc1nn(-c2ccc3nncn3n2)c(C)c1CCC(=O)N1CCCC1` [Compound 25, 3-(1-([1,2,4]triazolo[4,3-b]pyridazin-6-yl)-3,5-dimethyl-1H-pyrazol-4-yl)-1-(pyrrolidin-1-yl)propan-1-one] stands at least 30%; under `Cc1nn(-c2ccc3nncn3n2)c(C)c1CCC(=O)NCCCc1ccccc1` [Compound 22, 3-(1-([1,2,4]triazolo[4,3-b]pyridazin-6-yl)-3,5-dimethyl-1H-pyrazol-4-yl)-N-(3-phenylpropyl)propanamide], at least 30%.

The target of the next test is T2, TRAF6-Ubc13 binding (Homo sapiens, UniProt Q9Y4K3).
T2 construct: RING-Zincfinger1 (RZ1) domain (residues 50-159) of TRAF6 wildtype; expressed in transfected cells; host or cells: HEK 293T
T2 sequence (Q9Y4K3 50-159): T1 sequence (Q9Y4K3 50-159)
Nature of the test: Co-immunoprecipitation of HA-TRAF6 and endogenous Ubc13 in HEK 293T cells. The format is cell-based.
Details: not given
The method, then: To study the interaction of TRAF6 and Ubc13 in cells, 1×10^6 293T cells were seeded and after 18 hours cells were transfected with lpg pEF-HA empty or pEF-HA-TRAF6 RZ1 plasmid using the X-tremeGENE HP DNA transfection reagent (Roche). 6 hours upon transfection, cells were treated with compound or DMSO. After 42 hours further incubation, cells were harvested in Co-IP lysis buffer and HA-TRAF6 was immunoprecipitated with anti-HA affinity matrix (Roche). Binding of Ubc13 to TRAF6 was examined in Western Blot analysis.
For the compound `COc1cccc(CN2CCN(C(=O)CCc3c(C)nn(-c4ccc5nnc(C)n5n4)c3C)CC2)c1` [Compound 29, 3-(3,5-dimethyl-1-(3-methyl-[1,2,4]triazolo[4,3-b]pyridazin-6-yl)-1H-pyrazol-4-yl)-1-(4-(3-methoxybenzyl)piperazin-1-yl)propan-1-one], the “interaction of endogenous Ubc13 with ectopically expressed HA-TRAF6” value (“interaction of endogenous Ubc13” for short) is recorded as “active in cells”.
With `Cc1nn(-c2ccc3nnc(C)n3n2)c(C)c1CCC(=O)N1CCN(Cc2ccccc2)CC1` [Compound 28, 1-(4-benzylpiperazin-1-yl)-3-(3,5-dimethyl-1-(3-methyl-[1,2,4]triazolo[4,3-b]pyridazin-6-yl)-1H-pyrazol-4-yl)propan-1-one], the “interaction of endogenous Ubc13” value was “active in cells”.
The same measure, in the same setting: next, `Cc1nn(-c2ccc3nnc(C)n3n2)c(C)c1CCC(=O)N1CCC(c2ccccc2)CC1` [Compound 32, 3-(3,5-dimethyl-1-(3-methyl-[1,2,4]triazolo[4,3-b]pyridazin-6-yl)-1H-pyrazol-4-yl)-1-(4-phenylpiperidin-1-yl)propan-1-one]: “active in cells”; `Cc1nn(-c2ccc3nnc(C)n3n2)c(C)c1CCC(=O)N1CCN(Cc2ccc(F)cc2)CC1` [Compound 30, 3-(3,5-dimethyl-1-(3-methyl-[1,2,4]triazolo[4,3-b]pyridazin-6-yl)-1H-pyrazol-4-yl)-1-(4-(4-fluorobenzyl)piperazin-1-yl)propan-1-one]: “active in cells”.

Still in this test, the particulars now being: listed as HZM06-7.
With `Cc1nn(-c2ccc3nnc(C)n3n2)c(C)c1CCC(=O)N1CCC(c2ccccn2)CC1` [Compound 33, 3-(3,5-dimethyl-1-(3-methyl-[1,2,4]triazolo[4,3-b]pyridazin-6-yl)-1H-pyrazol-4-yl)-1-(4-(pyridin-2-yl)piperidin-1-yl)propan-1-one], the “interaction of endogenous Ubc13” value was “active in cells; also recorded: most active analogs”.

The test is the same for the next values; noted with them: listed as HZM06-8.
As for `COc1cccc(CC2CCN(C(=O)CCc3c(C)nn(-c4ccc5nnc(C)n5n4)c3C)CC2)c1` [Compound 34, 3-(3,5-dimethyl-1-(3-methyl-[1,2,4]triazolo[4,3-b]pyridazin-6-yl)-1H-pyrazol-4-yl)-1-(4-(3-methoxybenzyl)piperidin-1-yl)propan-1-one], the “interaction of endogenous Ubc13” value is on record as “active in cells; also recorded: most active analogs”.

The same test, now with this note: listed as HZM06-9.
On to `Cc1nn(-c2ccc3nnc(C)n3n2)c(C)c1CCC(=O)N1CCC(Cc2ccc(F)cc2)CC1` [Compound 35, 3-(3,5-dimethyl-1-(3-methyl-[1,2,4]triazolo[4,3-b]pyridazin-6-yl)-1H-pyrazol-4-yl)-1-(4-(4-fluorobenzyl)piperidin-1-yl)propan-1-one], for which the “interaction of endogenous Ubc13” value is “active in cells; also recorded: most active analogs”.

For orientation: IC50 means the concentration at which inhibition is half-maximal. High values mean weaker potency, low ones greater potency.

Source of the values: US11001591B2, “TRAF 6 inhibitors” (HELMHOLTZ ZENTRUM MUENCHEN—DEUTSCHES FORSCHUNGSZENTRUM FÜR …, priority 2016, dated 2021).
